Structures can show the parent of a compound that is named as a salt. Where two headings read alike, the source gives them in different places.
Tests used:
[1] = tested on: 60 cancer cell lines (NCI 60 cancer cell line series); test: NCI-DTP in vitro cancer screen, sulforhodamine B (SRB) growth inhibition, 48 hour exposure; format: cell-based, human; set-up: key to sensitivity class Ovarian OVCAR-8 CL6005 / sensitivity class Ovarian SK-OV-3 CL6011 / sensitivity class Prostate DU-145 CL11003 / sensitivity class NSCLC NCI-H522 CL1003 / sensitivity class Ovarian IGROV1 CL6010 / sensitivity class Ovarian OVCAR-4 CL6002 / sensitivity class Prostate PC-3(I) CL11001 / sensitivity class Renal A498 CL9013 / sensitivity class Renal SN12C CL9008: sensitivity class: 1 = Low, 2 = Medium, 3 = High
Summary of the method: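 Sixty NCI-DTP cancer lines plated at line-specific densities, dosed on day 1 in duplicate with 5 concentrations at ten-fold intervals. After 48 h exposure, cell mass read by SRB staining; GI50 (50% growth inhibition) taken from dose-response curves and expressed as -log GI50.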

[2] = tested on: 60 cancer cell lines (NCI 60 cancer cell line series); details: cited from earlier work

CC[C@]1(O)C[C@H]2CN(CCc3c([nH]c4ccccc34)[C@@](C(=O)OC)(c3cc4c(cc3OC)N(C=O)[C@H]3[C@@](O)(C(=O)OC)[C@H](OC(C)=O)[C@]5(CC)C=CCN6CC[C@]43[C@@H]65)C2)C1 [Vincristine sulfate]
6.6: -Log (GI50) ([2]; Breast MDA-MB-231 CL5005) | -Log (GI50) ([2]; Breast MDA-N CL5012) | -Log (GI50) ([2]; Melanoma MALME-3M CL10002) | -Log (GI50) ([2]; Ovarian SK-OV-3 CL6011) | -Log (GI50) ([2]; Prostate PC-3(I) CL11001)
5.7: -Log (GI50) ([2]; NSCLC EKVX (CL1008)) | -Log (GI50) ([2]; Renal TK10 CL9024) | -Log (GI50) ([2]; Renal UO-31 CL9004)
3.8: -Log (GI50) ([2]; Breast T-47D (CL5014))
6.5: -Log (GI50) ([2]; Breast HS-578T CL5006)
6.0: -Log (GI50) ([2]; Melanoma SK-MEL-28 (CL10008))
5.9: -Log (GI50) ([2]; Breast BT-549 (CL5013))
3: classification of cell line as Low(1), Medium(2) or High(3) sensitivity to compound ([1]; CNS SF-268 CL12014) | classification of cell line as Low(1), Medium(2) or High(3) sensitivity to compound ([1]; CNS SF-295 CL12015) | classification of cell line as Low(1), Medium(2) or High(3) sensitivity to compound ([1]; CNS SF-539 CL12016) | classification of cell line as Low(1), Medium(2) or High(3) sensitivity to compound ([1]; Colon HT29(I) CL4001) | classification of cell line as Low(1), Medium(2) or High(3) sensitivity to compound ([1]; Colon KM12 (CL4017)) | classification of cell line as Low(1), Medium(2) or High(3) sensitivity to compound ([1]; Colon SW-620 (CL4009)) | classification of cell line as Low(1), Medium(2) or High(3) sensitivity to compound ([1]; Leukemia CCRF-CEM(I) (CL7003)) | classification of cell line as Low(1), Medium(2) or High(3) sensitivity to compound ([1]; Leukemia HL-60(I) (CL7008)) | classification of cell line as Low(1), Medium(2) or High(3) sensitivity to compound ([1]; Leukemia K562(I) CL7005) | classification of cell line as Low(1), Medium(2) or High(3) sensitivity to compound ([1]; Leukemia MOLT-4 (CL7006)) | classification of cell line as Low(1), Medium(2) or High(3) sensitivity to compound ([1]; Leukemia RPMI-8226(I) (CL7010)) | classification of cell line as Low(1), Medium(2) or High(3) sensitivity to compound ([1]; Leukemia SR CL7019) | classification of cell line as Low(1), Medium(2) or High(3) sensitivity to compound ([1]; Melanoma LOX IMVI CL10001) | classification of cell line as Low(1), Medium(2) or High(3) sensitivity to compound ([1]; Melanoma SK-MEL-5 (CL10007)) | sensitivity class NSCLC NCI-H23(I) CL1001 ([1]; cell line NSCLC NCI-H23(I), CL1001) | sensitivity class NSCLC NCI-H460 CL1021 ([1]; cell line NSCLC NCI-H460, CL1021) | sensitivity class NSCLC NCI-H522 CL1003 ([1]; cell line NSCLC NCI-H522, CL1003) | sensitivity class Ovarian IGROV1 CL6010 ([1]; cell line Ovarian IGROV1, CL6010) | sensitivity class Ovarian OVCAR-3 CL6001 ([1]; cell line Ovarian OVCAR-3, CL6001) | sensitivity class Ovarian OVCAR-8 CL6005 ([1]; cell line Ovarian OVCAR-8, CL6005) | sensitivity class Renal A498 CL9013 ([1]; cell line Renal A498, CL9013)
6.1: -Log (GI50) ([2]; Breast MCF7/ADRr (CL5002))
4.7: -Log (GI50) ([2]; Ovarian OVCAR-5 CL6003)
1: classification of cell line as Low(1), Medium(2) or High(3) sensitivity to compound ([1]; Breast MDA-N CL5012) | classification of cell line as Low(1), Medium(2) or High(3) sensitivity to compound ([1]; Melanoma SK-MEL-28 (CL10008)) | classification of cell line as Low(1), Medium(2) or High(3) sensitivity to compound ([1]; NSCLC EKVX (CL1008)) | sensitivity class Ovarian OVCAR-5 CL6003 ([1]; cell line Ovarian OVCAR-5, CL6003) | sensitivity class Renal TK10 CL9024 ([1]; cell line Renal TK10, CL9024) | sensitivity class Renal UO-31 CL9004 ([1]; cell line Renal UO-31, CL9004)
7.0: -Log (GI50) ([2]; CNS SF-295 CL12015) | -Log (GI50) ([2]; CNS SF-539 CL12016) | -Log (GI50) ([2]; Colon HT29(I) CL4001) | -Log (GI50) ([2]; Colon SW-620 (CL4009)) | -Log (GI50) ([2]; Leukemia CCRF-CEM(I) (CL7003)) | -Log (GI50) ([2]; Leukemia HL-60(I) (CL7008)) | -Log (GI50) ([2]; Leukemia K562(I) CL7005) | -Log (GI50) ([2]; Leukemia SR CL7019) | -Log (GI50) ([2]; Melanoma LOX IMVI CL10001) | -Log (GI50) ([2]; Melanoma SK-MEL-5 (CL10007)) | -Log (GI50) ([2]; NSCLC NCI-H23(I) CL1001) | -Log (GI50) ([2]; NSCLC NCI-H460 CL1021) | -Log (GI50) ([2]; Ovarian IGROV1 CL6010) | -Log (GI50) ([2]; Ovarian OVCAR-3 CL6001) | -Log (GI50) ([2]; Ovarian OVCAR-8 CL6005) | -Log (GI50) ([2]; Renal A498 CL9013)
6.9: -Log (GI50) ([2]; Breast MCF7(I) (CL5001)) | -Log (GI50) ([2]; CNS SNB-19 (CL12002)) | -Log (GI50) ([2]; CNS U251(I) CL12009) | -Log (GI50) ([2]; Colon COLO-250 CL4010) | -Log (GI50) ([2]; Colon HCC-2998 (CL4002)) | -Log (GI50) ([2]; Colon HCT-15 CL4015) | -Log (GI50) ([2]; Colon HCT-116 (CL4003)) | -Log (GI50) ([2]; Colon KM12 (CL4017)) | -Log (GI50) ([2]; Leukemia MOLT-4 (CL7006)) | -Log (GI50) ([2]; Leukemia RPMI-8226(I) (CL7010)) | -Log (GI50) ([2]; Melanoma M14 (CL10014)) | -Log (GI50) ([2]; Melanoma SK-MEL-2 (CL10005)) | -Log (GI50) ([2]; Melanoma UACC-62 (CL10020)) | -Log (GI50) ([2]; NCSLC NCI-H522 CL1003) | -Log (GI50) ([2]; NSCLC A549/ATCC (CL1004)) | -Log (GI50) ([2]; NSCLC HOP-92 (CL1029)) | -Log (GI50) ([2]; NSCLC NCI-H226 CL1013) | -Log (GI50) ([2]; NSCLC NCI-H332M CL1017) | -Log (GI50) ([2]; Renal 786-O CL9018) | -Log (GI50) ([2]; Renal CAKI-1 CL9015) | -Log (GI50) ([2]; Renal RXF-393 CL9016) | -Log (GI50) ([2]; Renal SN12C CL9008)
2: classification of cell line as Low(1), Medium(2) or High(3) sensitivity to compound ([1]; Breast BT-549 (CL5013)) | classification of cell line as Low(1), Medium(2) or High(3) sensitivity to compound ([1]; Breast HS-578T CL5006) | classification of cell line as Low(1), Medium(2) or High(3) sensitivity to compound ([1]; Breast MCF7(I) (CL5001)) | classification of cell line as Low(1), Medium(2) or High(3) sensitivity to compound ([1]; Breast MCF7/ADRr (CL5002)) | classification of cell line as Low(1), Medium(2) or High(3) sensitivity to compound ([1]; Breast MDA-MB-231 CL5005) | classification of cell line as Low(1), Medium(2) or High(3) sensitivity to compound ([1]; Breast MDA-MB-435 (CL5011)) | classification of cell line as Low(1), Medium(2) or High(3) sensitivity to compound ([1]; Breast T-47D (CL5014)) | classification of cell line as Low(1), Medium(2) or High(3) sensitivity to compound ([1]; CNS SNB-19 (CL12002)) | classification of cell line as Low(1), Medium(2) or High(3) sensitivity to compound ([1]; CNS SNB-75(I) CL12005) | classification of cell line as Low(1), Medium(2) or High(3) sensitivity to compound ([1]; CNS U251(I) CL12009) | classification of cell line as Low(1), Medium(2) or High(3) sensitivity to compound ([1]; Colon COLO-250 CL4010) | classification of cell line as Low(1), Medium(2) or High(3) sensitivity to compound ([1]; Colon HCC-2998 (CL4002)) | classification of cell line as Low(1), Medium(2) or High(3) sensitivity to compound ([1]; Colon HCT-15 CL4015) | classification of cell line as Low(1), Medium(2) or High(3) sensitivity to compound ([1]; Colon HCT-116 (CL4003)) | classification of cell line as Low(1), Medium(2) or High(3) sensitivity to compound ([1]; Melanoma M14 (CL10014)) | classification of cell line as Low(1), Medium(2) or High(3) sensitivity to compound ([1]; Melanoma MALME-3M CL10002) | classification of cell line as Low(1), Medium(2) or High(3) sensitivity to compound ([1]; Melanoma SK-MEL-2 (CL10005)) | classification of cell line as Low(1), Medium(2) or High(3) sensitivity to compound ([1]; Melanoma UACC-62 (CL10020)) | classification of cell line as Low(1), Medium(2) or High(3) sensitivity to compound ([1]; Melanoma UACC-257 (CL10021)) | classification of cell line as Low(1), Medium(2) or High(3) sensitivity to compound ([1]; NSCLC A549/ATCC (CL1004)) | classification of cell line as Low(1), Medium(2) or High(3) sensitivity to compound ([1]; NSCLC HOP-62 (CL1026)) | classification of cell line as Low(1), Medium(2) or High(3) sensitivity to compound ([1]; NSCLC HOP-92 (CL1029)) | classification of cell line as Low(1), Medium(2) or High(3) sensitivity to compound ([1]; NSCLC NCI-H226 CL1013) | sensitivity class NSCLC NCI-H332M CL1017 ([1]; cell line NSCLC NCI-H332M, CL1017) | sensitivity class Ovarian OVCAR-4 CL6002 ([1]; cell line Ovarian OVCAR-4, CL6002) | sensitivity class Ovarian SK-OV-3 CL6011 ([1]; cell line Ovarian SK-OV-3, CL6011) | sensitivity class Prostate DU-145 CL11003 ([1]; cell line Prostate DU-145, CL11003) | sensitivity class Prostate PC-3(I) CL11001 ([1]; cell line Prostate PC-3(I), CL11001) | sensitivity class Renal 786-O CL9018 ([1]; cell line Renal 786-O, CL9018) | sensitivity class Renal ACHN CL9023 ([1]; cell line Renal ACHN, CL9023) | sensitivity class Renal CAKI-1 CL9015 ([1]; cell line Renal CAKI-1, CL9015) | sensitivity class Renal RXF-393 CL9016 ([1]; cell line Renal RXF-393, CL9016) | sensitivity class Renal SN12C CL9008 ([1]; cell line Renal SN12C, CL9008)
6.4: -Log (GI50) ([2]; Prostate DU-145 CL11003)
6.7: -Log (GI50) ([2]; Breast MDA-MB-435 (CL5011))
6.8: -Log (GI50) ([2]; CNS SF-268 CL12014) | -Log (GI50) ([2]; Melanoma UACC-257 (CL10021)) | -Log (GI50) ([2]; NSCLC HOP-62 (CL1026)) | -Log (GI50) ([2]; Renal ACHN CL9023)
6.3: -Log (GI50) ([2]; CNS SNB-75(I) CL12005) | -Log (GI50) ([2]; Ovarian OVCAR-4 CL6002)

From US20020051978A1, “Methods and compositions for the identification, assessment, prevention and therapy of human cancers” (priority 2000, published 2002)
